Measured values published in PMC10044120, “Potent and selective covalent inhibition of the papain-like protease from SARS-CoV-2” (Nature Communications, 2023).
pEC50, pIC50: −log10 of the molar value. Like-named read-outs stand apart in the source and are kept apart here.

Assays:
SARS-CoV-2 PLpro [1] = biological target: T1, SARS-CoV-2 PLpro (Severe acute respiratory syndrome coronavirus 2, UniProt P0DTD1); test: biochemical; conditions: PLpro 50 nM, Ub-rhodamine110
[2] = tested on: viral replication in Vero E6 cells; conditions: viral replication in Vero E6 cells; cited from earlier work
PLpro from SARS-CoV-2 = PLpro from SARS-CoV-2 (Severe acute respiratory syndrome coronavirus 2, UniProt P0DTD1); test: biochemical; assay type: biochemical
SARS-CoV-2 PLpro [3] = biological target: T1, SARS-CoV-2 PLpro; test: biochemical; conditions: PLpro 10 nM, ISG15-CHOP2
USP30 = biological target: T2, USP30 (Homo sapiens, UniProt Q70CQ3); test: biochemical; conditions: USP30 10 nM, Ub-rhodamine110
T2 construct: purchased LifeSensors, Inc. (Malvern, PA)

USP15 = biological target: T3, USP15 (Homo sapiens, UniProt Q9Y4E8); test: DUB selectivity assay, USP15 (Ub-rhodamine110); assay type: biochemical; conditions: USP15 1 nM, Ub-rhodamine110; read-out: IC50
T3 construct: purchased LifeSensors, Inc. (Malvern, PA)
T3 sequence (Q9Y4E8 1-981): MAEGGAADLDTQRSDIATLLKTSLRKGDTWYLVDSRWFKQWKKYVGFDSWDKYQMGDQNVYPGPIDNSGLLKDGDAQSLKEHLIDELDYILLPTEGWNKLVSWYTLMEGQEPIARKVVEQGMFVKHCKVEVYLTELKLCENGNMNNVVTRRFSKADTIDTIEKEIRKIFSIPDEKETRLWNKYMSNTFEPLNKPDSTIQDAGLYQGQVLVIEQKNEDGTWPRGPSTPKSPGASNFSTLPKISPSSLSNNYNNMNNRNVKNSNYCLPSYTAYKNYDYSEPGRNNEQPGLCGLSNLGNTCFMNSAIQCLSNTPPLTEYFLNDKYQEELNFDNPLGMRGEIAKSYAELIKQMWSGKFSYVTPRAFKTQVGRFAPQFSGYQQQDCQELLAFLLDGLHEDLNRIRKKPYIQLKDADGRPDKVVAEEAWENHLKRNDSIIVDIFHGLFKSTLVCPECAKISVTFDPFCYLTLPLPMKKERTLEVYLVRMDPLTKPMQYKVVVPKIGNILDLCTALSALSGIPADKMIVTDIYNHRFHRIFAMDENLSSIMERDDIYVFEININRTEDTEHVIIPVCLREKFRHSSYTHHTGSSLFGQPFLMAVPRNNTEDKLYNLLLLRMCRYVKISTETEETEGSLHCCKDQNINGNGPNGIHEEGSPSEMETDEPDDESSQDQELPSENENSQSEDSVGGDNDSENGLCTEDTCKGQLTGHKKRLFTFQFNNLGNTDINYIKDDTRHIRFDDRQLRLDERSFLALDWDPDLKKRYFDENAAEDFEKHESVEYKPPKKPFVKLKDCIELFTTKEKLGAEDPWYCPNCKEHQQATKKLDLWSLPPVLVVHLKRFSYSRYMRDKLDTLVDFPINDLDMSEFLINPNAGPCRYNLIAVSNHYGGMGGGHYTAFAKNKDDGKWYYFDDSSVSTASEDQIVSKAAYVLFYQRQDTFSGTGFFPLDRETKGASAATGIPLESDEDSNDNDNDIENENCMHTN

[4] = tested on: SARS-CoV-2 isolate USA-WA1/2020; conditions: read-out: cytopathic effect, % cell viability, duplicate wells
UCHL1 = biological target: T4, UCHL1 (Homo sapiens, UniProt P09936); test: biochemical; conditions: UCHL1 10 nM, Ub-rhodamine110
T4 construct: purchased LifeSensors, Inc. (Malvern, PA)

[5] = tested on: SARS-CoV-2 isolate USA-WA1/2020; test: microbe, parasite or virus in culture; conditions: duplicate wells
USP4 = biological target: T5, USP4 (Homo sapiens, UniProt Q13107); test: DUB selectivity assay, USP4 (Ub-rhodamine110); assay type: biochemical; conditions: USP4 10 nM, Ub-rhodamine110; read-out: IC50
T5 construct: purchased LifeSensors, Inc. (Malvern, PA)
T5 sequence (Q13107 1-963): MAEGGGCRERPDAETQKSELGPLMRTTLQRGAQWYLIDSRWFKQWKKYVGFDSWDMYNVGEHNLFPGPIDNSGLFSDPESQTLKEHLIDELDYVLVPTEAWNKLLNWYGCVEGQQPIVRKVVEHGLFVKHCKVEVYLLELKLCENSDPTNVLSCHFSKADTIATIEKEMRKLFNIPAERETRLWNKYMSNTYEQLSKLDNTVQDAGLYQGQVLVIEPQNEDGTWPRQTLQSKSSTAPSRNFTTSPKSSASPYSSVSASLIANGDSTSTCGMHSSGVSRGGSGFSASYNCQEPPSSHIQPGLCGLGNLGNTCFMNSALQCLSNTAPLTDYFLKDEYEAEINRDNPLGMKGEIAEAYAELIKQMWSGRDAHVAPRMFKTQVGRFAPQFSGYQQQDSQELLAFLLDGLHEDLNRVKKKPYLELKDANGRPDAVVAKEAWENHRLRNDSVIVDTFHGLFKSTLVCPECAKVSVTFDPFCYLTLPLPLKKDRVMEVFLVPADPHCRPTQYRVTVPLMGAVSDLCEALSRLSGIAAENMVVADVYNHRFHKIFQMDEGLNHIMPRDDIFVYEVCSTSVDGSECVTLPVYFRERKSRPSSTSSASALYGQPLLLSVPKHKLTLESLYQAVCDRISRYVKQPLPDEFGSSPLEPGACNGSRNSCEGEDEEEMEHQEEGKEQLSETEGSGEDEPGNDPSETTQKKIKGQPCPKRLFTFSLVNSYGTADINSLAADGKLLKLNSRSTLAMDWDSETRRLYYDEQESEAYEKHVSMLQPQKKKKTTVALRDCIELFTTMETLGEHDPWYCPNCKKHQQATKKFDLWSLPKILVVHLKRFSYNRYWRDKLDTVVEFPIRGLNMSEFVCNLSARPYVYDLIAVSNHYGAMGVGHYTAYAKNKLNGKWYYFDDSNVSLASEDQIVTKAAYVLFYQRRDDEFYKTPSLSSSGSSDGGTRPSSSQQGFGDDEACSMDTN

in vitro = conditions: African green monkey, cytotoxicity, %cell viability
USP7 = biological target: T6, USP7 (Homo sapiens, UniProt Q93009); test: biochemical; conditions: USP7 5 nM, Ub-CHOP2
T6 construct: purchased LifeSensors, Inc. (Malvern, PA)

Vero E6 cells = conditions: African green monkey, 48 h
SARS-CoV PLpro = conditions: cited from earlier work
USP8 = biological target: T7, USP8 (Homo sapiens, UniProt P40818); test: biochemical; conditions: USP8 10 nM, Ub-rhodamine110
T7 construct: USP2c, USP4, USP7, USP8c, USP15, USP30WT, and UCH-L1; purchased LifeSensors, Inc. (Malvern, PA)

USP2 = biological target: T8, USP2 (Homo sapiens, UniProt O75604); test: biochemical; conditions: USP2 10 nM, Ub-rhodamine110
T8 construct: USP2c, USP4, USP7, USP8c, USP15, USP30WT, and UCH-L1; purchased LifeSensors, Inc. (Malvern, PA)
T8 sequence (O75604 267-599): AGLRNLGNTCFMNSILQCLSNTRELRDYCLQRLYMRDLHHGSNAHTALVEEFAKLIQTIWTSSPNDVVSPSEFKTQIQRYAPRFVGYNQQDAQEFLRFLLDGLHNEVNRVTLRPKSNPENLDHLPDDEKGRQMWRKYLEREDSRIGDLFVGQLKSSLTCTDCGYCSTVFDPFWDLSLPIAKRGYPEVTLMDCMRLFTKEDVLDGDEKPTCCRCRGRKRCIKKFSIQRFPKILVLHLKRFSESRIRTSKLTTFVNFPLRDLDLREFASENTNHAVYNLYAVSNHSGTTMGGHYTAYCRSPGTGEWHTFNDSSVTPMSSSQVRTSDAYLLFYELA

T4 sequence (P09936 whole entry): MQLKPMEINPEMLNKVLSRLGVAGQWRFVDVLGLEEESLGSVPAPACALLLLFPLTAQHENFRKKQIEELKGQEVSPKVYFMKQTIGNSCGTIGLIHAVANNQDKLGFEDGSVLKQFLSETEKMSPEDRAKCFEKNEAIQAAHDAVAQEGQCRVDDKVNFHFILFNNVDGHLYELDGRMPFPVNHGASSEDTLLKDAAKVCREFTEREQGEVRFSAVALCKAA
T7 sequence (P40818 777-1109): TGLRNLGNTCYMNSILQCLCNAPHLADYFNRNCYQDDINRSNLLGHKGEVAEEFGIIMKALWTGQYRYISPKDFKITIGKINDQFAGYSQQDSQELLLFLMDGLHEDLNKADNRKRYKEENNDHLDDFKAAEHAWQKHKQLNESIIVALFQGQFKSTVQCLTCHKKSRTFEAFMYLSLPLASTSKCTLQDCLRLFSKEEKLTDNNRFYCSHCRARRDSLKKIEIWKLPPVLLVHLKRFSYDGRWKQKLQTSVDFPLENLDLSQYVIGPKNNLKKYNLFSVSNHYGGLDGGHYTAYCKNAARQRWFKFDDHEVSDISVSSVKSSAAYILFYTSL
T6 sequence (Q93009 whole entry): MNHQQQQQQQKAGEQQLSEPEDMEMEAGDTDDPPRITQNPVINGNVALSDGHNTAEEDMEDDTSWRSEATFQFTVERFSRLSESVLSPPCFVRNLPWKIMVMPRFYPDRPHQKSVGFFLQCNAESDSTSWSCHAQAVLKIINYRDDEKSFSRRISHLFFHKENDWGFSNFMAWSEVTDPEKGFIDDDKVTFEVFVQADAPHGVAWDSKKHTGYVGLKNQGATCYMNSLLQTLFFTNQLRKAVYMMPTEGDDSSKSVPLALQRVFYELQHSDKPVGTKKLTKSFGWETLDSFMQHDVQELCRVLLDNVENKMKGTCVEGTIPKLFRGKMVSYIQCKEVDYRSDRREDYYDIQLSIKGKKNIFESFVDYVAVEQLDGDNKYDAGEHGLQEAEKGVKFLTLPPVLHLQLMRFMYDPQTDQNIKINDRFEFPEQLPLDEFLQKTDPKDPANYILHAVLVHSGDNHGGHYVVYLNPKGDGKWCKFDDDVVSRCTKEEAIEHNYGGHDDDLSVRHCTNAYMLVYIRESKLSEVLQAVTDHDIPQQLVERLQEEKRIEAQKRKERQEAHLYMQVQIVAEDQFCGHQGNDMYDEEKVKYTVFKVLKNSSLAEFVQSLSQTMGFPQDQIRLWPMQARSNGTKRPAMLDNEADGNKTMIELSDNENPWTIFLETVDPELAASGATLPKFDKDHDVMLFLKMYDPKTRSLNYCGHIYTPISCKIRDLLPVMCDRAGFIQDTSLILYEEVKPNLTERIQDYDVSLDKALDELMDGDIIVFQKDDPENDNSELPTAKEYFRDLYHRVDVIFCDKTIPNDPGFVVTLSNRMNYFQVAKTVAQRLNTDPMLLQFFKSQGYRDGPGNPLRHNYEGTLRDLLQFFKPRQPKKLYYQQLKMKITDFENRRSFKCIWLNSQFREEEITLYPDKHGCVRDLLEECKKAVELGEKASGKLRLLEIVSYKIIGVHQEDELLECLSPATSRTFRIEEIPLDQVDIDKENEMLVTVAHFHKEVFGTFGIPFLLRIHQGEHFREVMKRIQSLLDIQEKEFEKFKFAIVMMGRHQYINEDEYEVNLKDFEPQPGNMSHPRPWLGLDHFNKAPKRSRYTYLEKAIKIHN
T2 sequence (Q70CQ3 whole entry): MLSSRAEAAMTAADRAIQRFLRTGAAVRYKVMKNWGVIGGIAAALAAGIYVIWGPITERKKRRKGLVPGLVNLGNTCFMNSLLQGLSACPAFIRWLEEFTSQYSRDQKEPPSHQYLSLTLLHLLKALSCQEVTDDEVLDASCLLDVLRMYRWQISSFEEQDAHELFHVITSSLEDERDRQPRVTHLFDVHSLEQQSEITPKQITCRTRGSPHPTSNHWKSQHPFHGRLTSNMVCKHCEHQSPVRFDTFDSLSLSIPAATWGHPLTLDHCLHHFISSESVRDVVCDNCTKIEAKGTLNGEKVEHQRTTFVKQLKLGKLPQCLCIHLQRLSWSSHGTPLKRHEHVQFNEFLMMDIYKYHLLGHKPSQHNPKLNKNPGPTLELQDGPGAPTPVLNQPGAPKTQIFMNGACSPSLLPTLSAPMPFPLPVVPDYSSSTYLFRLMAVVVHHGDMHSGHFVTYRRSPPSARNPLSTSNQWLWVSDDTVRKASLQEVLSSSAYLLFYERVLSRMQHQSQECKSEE

CC(=O)Nc1ccc(C)c(C(=O)N[C@H](C)c2cccc3ccccc23)c1 [Compound 15, (R)-5-acetamido-2-methyl-N-(1-(naphthalen-1-yl)ethyl)benzamide]
Hill slope (SARS-CoV-2 PLpro [1]): 0.376
pIC50 (SARS-CoV-2 PLpro [1]): < 4.52
pEC50 [2]: 4.88
remaining activity at 0.02 µM (PLpro from SARS-CoV-2; 0.5 h, inhibitor 0.02 uM): 115%
remaining activity at 0.06 µM (PLpro from SARS-CoV-2; 0.5 h, inhibitor 0.06 uM): 104%
remaining activity at 0.2 µM (PLpro from SARS-CoV-2; 0.5 h, inhibitor 0.20 uM): 110%
remaining activity at 2.01 µM (PLpro from SARS-CoV-2; 0.5 h, inhibitor 2.01 uM): 61.8%
remaining activity at 6.34 µM (PLpro from SARS-CoV-2; 0.5 h, inhibitor 6.34 uM): 56.9%
remaining activity at 20 µM (PLpro from SARS-CoV-2; 0.5 h, inhibitor 20.00 uM): 26.7%
pIC50 (PLpro from SARS-CoV-2; after 30-min incubation, purified PLpro, Z-RLRGG-AMC substrate): 5.21
Hill slope (SARS-CoV-2 PLpro [3]): 0.969
pIC50 (SARS-CoV-2 PLpro [3]): < 4.52
pIC50 (USP30): < 4.52
pIC50 (USP15): < 4.52
inhibition ([4]; [inhibitor] 8.33 uM, 8.33 µM): 3.31%
inhibition ([4]; [inhibitor] 16.67 uM, 16.67 µM): 6.9%
pIC50 (UCHL1): < 4.52
inhibition at 8.33 µM ([5]; Severe acute respiratory syndrome coronavirus 2, Vero C1008, read-out: cytopathic effect, % cell viability, [inhibitor] 8.33 uM): 5.51%
inhibition at 16.67 µM ([5]; Severe acute respiratory syndrome coronavirus 2, Vero C1008, read-out: cytopathic effect, % cell viability, [inhibitor] 16.67 uM): 8.63%
pIC50 (USP4): < 4.52
viability at 48 h, 2.08 µM (in vitro): 85.5%
viability at 48 h, 8.33 µM (in vitro): 85.8%
viability at 48 h, 16.67 µM (in vitro): 81.3%
viability at 48 h, 33.33 µM (in vitro): 64.9%
pIC50 (USP7): < 4.52
cytotoxicity, %cell viability (Vero E6 cells; 2.08 µM): 75.89%
cytotoxicity, %cell viability (Vero E6 cells; 8.33 µM): 83.23%
cytotoxicity, %cell viability (Vero E6 cells; 16.67 µM): 80.07%
cytotoxicity, %cell viability (Vero E6 cells; 33.33 µM): 59.25%
pIC50 (SARS-CoV PLpro): 5.59
pIC50 (USP8): < 4.52
pIC50 (USP2): < 4.52
